According to the CombiSolv-Exp solvation set (Vermeire and Green 2021):

Test: solvent given as SMILES

CCC
Settings	solvation free energy, 298 K [kJ/mol]
in Brc1ccccc1	-5.98
in C1CCC2CCCCC2C1	-6.36
in C1COCCO1	-5.19
in CC1COC(=O)O1	-2.43
in CC(=O)N(C)C	-4.56
in CC(C)(C)O	-5.82
in CC(C)=O	-5.69
in CC(C)CCO	-5.56
in CC(C)CO	-5.52
in CC(C)O	-5.06
in CC(CC(C)(C)C)CC(C)(C)CC(C)(C)C	-9.25
in CCC(C)(C)O	-5.94
in CCC(C)CO	-5.52
in CCC(O)CC	-5.61
in CCCC(C)O	-5.61
in CCCCC	-7.57
in CCCCCC	-7.53
in CCCCCCC	-7.41
in CCCCCCCC	-7.28
in CCCCCCCCC	-7.15
in CCCCCCCCCC	-6.99
in CCCCCCCCCCCC	-6.44
in CCCCCCCCCCCCC	-6.44
in CCCCCCCCCCCCCC	-6.23
in CCCCCCCCCCCCCCC	-6.19
in CCCCCCCCCCCCCCCC	-5.94
in CCCCCCCCO	-5.36
in CCCCCCCO	-5.1
in CCCCCO	-5.52
in CCCCO	-5.65
in CCCO	-5.52
in CCO	-5.19
in CN1CCCC1=O	-3.72
in CN(C)C=O	-3.68
in CN(C)P(=O)(N(C)C)N(C)C	-4.81
in CO	-4.81
in COCCOCCO	-3.22
in COCCOCCOC	-5.19
in COCCOCCOCCOC	-3.97
in COCCOCCOCCOCCOC	-4.1
in CS(C)=O	-1.51
in Cc1ccc(C)cc1	-6.53
in Cc1cccc(C)c1	-6.78
in Cc1ccccc1C	-6.36
in ClC(Cl)(Cl)Cl	-7.66
in Clc1ccccc1	-6.74
in Ic1ccccc1	-6.32
in N#Cc1ccccc1	-4.64
in NC=O	0.795
in Nc1ccccc1	-3.31
in O	8.2
in OC1CCCCC1	-4.6
in OCCCOCCCO	-2.38
in OCc1ccccc1	-3.51
in c1ccccc1	-6.74

C=O
Settings	solvation free energy, 298 K [kJ/mol]
in O	-11.5

Oc1ccc(-c2ccccc2)cc1
Settings	solvation free energy, 298 K [kJ/mol]
in CC(C)CC(C)(C)C	-40.1
in CCCCOCCCC	-53.8
in O	-37.2

COc1ccc2cc(C(C)C(=O)O)ccc2c1 (stereo not drawn)
Settings	solvation free energy, 298 K [kJ/mol]
in C1CCOC1	-75.1
in C1COCCO1	-74.1
in CC(C)CCO	-68.5
in CC(C)CO	-68.1
in CC(C)O	-69.6
in CCC(C)O	-69.3
in CCCC(C)O	-69
in CCCCCCCCCCO	-67.9
in CCCCCCCO	-69
in CCCCCCO	-69
in CCCCCO	-69.1
in CCCCO	-69.3
in CCCCOC(C)=O	-69.6
in CCCO	-69.6
in CCO	-69.7
in CCOC(C)=O	-71.3
in CCOCC	-69.8
in CO	-70
in COC(C)=O	-71.2

BrC1CCCCC1
Settings	solvation free energy, 298 K [kJ/mol]
in O	-2.38

CC1=CCC(C(C)C)C=C1 (stereo not drawn)
Settings	solvation free energy, 298 K [kJ/mol]
in O	0.837

CC(=O)OCCc1ccccc1
Settings	solvation free energy, 298 K [kJ/mol]
in O	-23

C#CC(C)(C)O
Settings	solvation free energy, 298 K [kJ/mol]
in O	-21.7

CCCC(=O)OCCC(C)CCC=C(C)C (stereo not drawn)
Settings	solvation free energy, 298 K [kJ/mol]
in O	-11.4

O=C(O)C(O)c1ccccc1 (stereo not drawn)
Settings	solvation free energy, 298 K [kJ/mol]
in C=CCCCCCCC=C	-39.4
in O	-57.4

CCCCCC1CCCC1
Settings	solvation free energy, 298 K [kJ/mol]
in O	10.7

NCCc1ccc(O)cc1
Settings	solvation free energy, 298 K [kJ/mol]
in C=CCCCCCCC=C	-41.9
in O	-49.6

CCCCCCCOC(C)=O
Settings	solvation free energy, 298 K [kJ/mol]
in NC=O	-20.3
in O	-8.66

CCCCCCCCCCOC(=O)c1ccccc1C(=O)OCC
Settings	solvation free energy, 298 K [kJ/mol]
in O	-28.4

CCCCCC(=O)OC
Settings	solvation free energy, 298 K [kJ/mol]
in CCCCCC	-23.6
in CCCCCCC	-23.6
in CCCCCCCC	-23.2
in CCCCCCCCCC	-22.9
in CO	-24.4
in O	-10.5

Cc1c(Cl)c(Cl)c(Cl)c(Cl)c1Cl
Settings	solvation free energy, 298 K [kJ/mol]
in CCCCCCCCC=CCCCCCCCC(=O)OCC(COC(=O)CCCCCCCC=CCCCCCCCC)OC(=O)CCCCCCCC=CCCCCCCCC	-41.3
in O	-8.45

O=C(O)C=Cc1ccccc1
Settings	solvation free energy, 298 K [kJ/mol]
in O	-35.1

FC1(F)C(F)(F)C(F)(F)C1(F)F
Settings	solvation free energy, 298 K [kJ/mol]
in O	14.4

C1COCCO1
Settings	solvation free energy, 298 K [kJ/mol]
in Brc1ccccc1	-21.3
in C1CCCCC1	-17.4
in C1CCOC1	-21.4
in CC1COC(=O)O1	-20.8
in CC#N	-22.1
in CC(=O)N(C)C	-20.8
in CC(=O)O	-24.4
in CC(=O)c1ccccc1	-21
in CC(C)(C)Cl	-20
in CC(C)(C)O	-20
in CC(C)=O	-21.2
in CC(C)CC(C)(C)C	-16.8
in CC(C)CCCC(C)CCCC(C)CCCCC(C)CCCC(C)CCCC(C)C	-15.9
in CC(C)CCO	-19
in CC(C)O	-19
in CC(C)OC(C)C	-18.4
in CCBr	-21.8
in CCC(C)=O	-21
in CCC(C)Cl	-19.7
in CCCC#N	-21
in CCCCC	-16.8
in CCCCCC	-17
in CCCCCCC	-16.8
in CCCCCCCCCC	-16.6
in CCCCCCCCCCCCCCCC	-15.9
in CCCCCl	-20.1
in CCCCN	-20.6
in CCCCN(C=O)CCCC	-19.2
in CCCCO	-19.1
in CCCCOCCCC	-18
in CCCO	-18.9
in CCN(CC)CC	-18.2
in CCO	-19.6
in CCOC(C)=O	-21
in CCOCC	-19.3
in CCOCCOCCOCC	-20
in CCOP(=O)(OCC)OCC	-19.4
in CCOc1ccccc1	-20.3
in CN1CCCC1=O	-20.8
in CN1CCN(C)C1=O	-19.3
in CN(C)C=O	-21.2
in CN(C)P(=O)(N(C)C)N(C)C	-20.2
in CNC(C)=O	-19.5
in CNC=O	-20.4
in CO	-20.5
in COCCO	-20.6
in COc1ccccc1	-21.2
in CS(C)=O	-20.3
in Cc1ccc(C)cc1	-20.1
in Cc1cccc(C)n1	-20.5
in Cc1cccc(O)c1	-28.5
in Cc1ccccc1	-20.5
in Cc1ccccn1	-21
in ClC(Cl)(Cl)Cl	-20.7
in ClC(Cl)Cl	-25.6
in Clc1ccccc1	-21.2
in FC(F)(F)C(F)(F)C(F)(F)C(F)(F)C(F)(F)C(F)(F)F	-11.5
in Fc1c(F)c(F)c(F)c(F)c1F	-20.6
in Fc1ccccc1	-21.6
in ICI	-20.5
in Ic1ccccc1	-20.7
in NC=O	-20.1
in Nc1ccccc1	-23.6
in O	-21.2
in O=C1CCCCC1	-20.8
in O=C1CCCO1	-21.2
in O=CN1CCOCC1	-19.8
in OCCO	-17.9
in OCCOCCOCCO	-16.2
in OCc1ccccc1	-22.7
in S=C=S	-19.3
in [2H]O[2H]	-21
in c1ccc2ncccc2c1	-20.4
in c1ccc(COCc2ccccc2)cc1	-20
in c1ccccc1	-21.6
in c1ccncc1	-21.6

CCCC(=O)CC
Settings	solvation free energy, 298 K [kJ/mol]
in O	-12.8

O=C(O)c1ccccc1O
Settings	solvation free energy, 298 K [kJ/mol]
in C1CCOC1	-45.1
in C1COCCO1	-43.3
in CC(C)(C)O	-43.6
in CC(C)=O	-43.8
in CC(C)CCO	-42.4
in CC(C)CO	-42.6
in CC(C)O	-43.5
in CCC(C)=O	-43.5
in CCC(C)O	-43.2
in CCCC(C)O	-43
in CCCCCCCCO	-42.5
in CCCCCCO	-42.6
in CCCCCO	-42.5
in CCCCO	-42.9
in CCCCOC(C)=O	-41.9
in CCCCOCCCC	-40.1
in CCCO	-43.3
in CCO	-43.5
in CCOC(C)=O	-42.3
in CCOCC	-42.5
in CN(C)C=O	-45.5
in CO	-43.8
in COC(C)(C)C	-42.6
in COC(C)=O	-42.6
in Clc1ccccc1	-35
in NC=O	-41.7
in O	-30.8
in O=C1CCCCC1	-43.7

c1ccc2c(c1)[nH]c1ccccc12
Settings	solvation free energy, 298 K [kJ/mol]
in CC(=O)N(C)C	-58.6
in CN1CCCC1=O	-60.8
in O	-30

CCCCCCCNCc1ccc(C)cc1
Settings	solvation free energy, 298 K [kJ/mol]
in O	-21

Cc1ccc(C(=O)O)cc1C
Settings	solvation free energy, 298 K [kJ/mol]
in CN(C)C=O	-48.6
in O	-27.4

CCCCCC=CC=O
Settings	solvation free energy, 298 K [kJ/mol]
in O	-14.4
